The subject of the series is healthy-1 or PD-2 fibroblasts. Description: Mitochondrial morphology and membrane potential, TMRM staining. The note with it: 10 μM for 30 hrs. The class given is cell-based, human. The protocol:
FIG. 8. Related to FIG. 2-4. Miro1 Reducer in Human Cell and Fly Models. (A) Fibroblasts from Healthy-1 and PD-2 were treated, lysed, and blotted as indicated. Band intensities are normalized to those of GAPDH from the same blots and compared to “Healthy-1, no treatment”. n=4 independent experiments. (B) Fibroblasts from PD-2 were treated and immunostained as indicated. The intensity was quantified for each cell across 264-320 cells from 3 independent experiments, compared to “no treatment”. (C) Fibroblasts were treated, immunoprecipitated (IPed) with anti-Miro1, and blotted as indicated. Similar results were observed twice. (D) Similar as in (C), fibroblasts were treated as indicated, and IPed with anti-Miro1. The GTPase activity of the IPed Miro1 protein was measured as described in Method. […] The MitoSox intensity was quantified for each cell across 106-161 cells from 3 coverslips. […] The TMRM intensity was measured for each cell across 48-60 cells from 3 independent experiments, and expressed as a fraction of the mean of “Healthy-1, no treatment”. […] The movement (the intensity of non-yellow) was quantified for each cell as described in (Tsai et al., 2014) across 22-31 cells from 3 transfections. […] (1) Left: The percentage of TH-positive iPSC-derived neurons out of total cells (Dapi-positive) is calculated after immunocytochemistry under 20× as described in FIG. 3. […]

In the case of `O=C(Nc1ccc(Nc2cc(-n3ccnc3)ncn2)cc1)Nc1cccc(F)c1` [Miro1 Reducer], the “general mitochondrial morphology and ΔΨm (TMRM)” value is “did not affect”.
